Structures can show the parent of a compound that is named as a salt.

Holding throughout (type): in vivo
Data set [1] deals with transgenic sugar beet. As to the kind of experiment: Damage to transgenic sugar beet, field trial (Table 5). The settings on record: application in the 3-5-leaf stage. Here is the method:
(§1) Transgenic sugar beet plants with resistance to one or more herbicides (A) were grown together with typical weed plants in the open in 2×5 m plots under natural field conditions; alternatively, the weed population established naturally while the sugar beet plants grew. Treatment with the compositions according to the invention and, for control purposes, with separate application of the active ingredients of the components alone, was carried out under standard conditions with a plot sprayer at an application rate of 200-300 liters of water per hectare in parallel trials in accordance with the scheme of Table 1, i.e. pre-sowing/pre-emergence, post-sowing/pre-emergence or post-emergence at the early, medium or late stage.
(§2) At 2, 4, 6 and 8 week intervals after application, the herbicidal activity of the active ingredients or active ingredient mixtures were scored visually by comparing the treated plots with untreated control plots. Damage and development of all aerial plant organs was recorded. The scoring was done using a percentage scale (100% activity=all plants dead, 50% activity=50% of the plants and green plant organs dead, 0% activity=no discernible effect=like control plot). The score values of in each case 4 plots were averaged.
(§3) In contrast, the sugar beet plants suffered no, or only negligible, damage as a consequence of the treatment with the herbicidal compositions.

Data set [2] relates to transgenic sugar beet. As to the kind of experiment: Damage to transgenic sugar beet - field trial (Table 2). To be noted: application in 2-4-leaf stage. The protocol: as §1, §2, §3
Data set [3] relates to Galium aparine. As to the kind of experiment: Herbicidal action in sugar beet crop, greenhouse experiment (Table 3). To be noted: application in the 4-5-leaf stage, scoring 3 weeks after application. The text has this:
Seeds or rhizomes of monocotyledonous and dicotyledonous weeds are placed in sandy loam soil in cardboard pots, covered with soil and grown in the greenhouse under good growth conditions. […] The compositions according to the invention, which are formulated as wettable powders or as emulsion concentrates, are sprayed at various dosages onto the green plant organs at an application rate of 600 to 800 l of water per ha (converted). After the experimental plants have remained in the greenhouse for approx. 3 to 4 weeks under optimal growth conditions, the effect of the preparations is scored visually in comparison with untreated controls. The compositions according to the invention also have a good herbicidal activity against a broad spectrum of economically important grass weeds and broad-leaved weeds when applied post-emergence.
In this context, activities of the combinations according to the invention are frequently observed which exceed the formal total of the activities when the herbicides are applied individually. The observed values show, at suitably low dosages, an activity of the combinations which exceed Colby's expected values (cf. scoring in Example 1).

For data set [4], the system named is transgenic sugar beet. The data set can be described thus: Damage to transgenic sugar beet, greenhouse experiment (Table 3). Set-up: scale not given here. The settings on record: application in the 4-5-leaf stage.
In data set [5] the test system is transgenic sugar beet. As to the kind of experiment: Damage to transgenic sugar beet, field trial (Table 4). The settings on record: application in 3-leaf stage. Here is the method: as §1, §2, §3
In data set [6] the test system is Galium aparine. As to the kind of experiment: Herbicidal action, field trial (Table 6). The settings on record: application in the 3-5-leaf stage, scoring 4 weeks after application. Here is the method: as §1, §2, §3
The subject of another data set is Amaranthus retroflexus. The data set can be described thus: Herbicidal action, field trial, sequential treatment (Table 8). The settings on record: dose 200 g A.S./ha; post-emergence at the 2-3-leaf stage; scoring 22 days after application. The protocol: as §1
(§4) […] Damage and development of all aerial plant organs was recorded. The scoring was done using a percentage scale (100% activity=all plants dead, 50% activity=50% of the plants and green plant organs dead, 0% activity=no discernible effect=like control plot). The score values of in each case 4 plots were averaged.
as §3

A further data set has as its system Setaria viridis. The description is as above. To be noted: dose 200 g A.S./ha; post-emergence at the 2-3-leaf stage; scoring 22 days after application. The protocol:
as §1, §4, §3

The test system of data set [7] is Galium aparine. The data set can be described thus: Herbicidal action, field trial (Table 7). The settings on record: application in the 4-5-leaf stage, scoring 26 days after application. The protocol:
as §1, §4, §3

In a further data set the test system is Avena fatua. As to the kind of experiment: Herbicidal action and selectivity in sugar beet crop, field trial (Table 5). The settings on record: application in the 3-5-leaf stage, scoring 4 weeks after application. The protocol:
as §1, §2, §3

`CCOC(=O)C(C)Oc1ccc(Oc2nc3ccc(Cl)cc3o2)cc1` (racemic) [(B3.2), fenoxaprop-ethyl (rac.)]: the “Damage to transgenic sugar beet” value with transgenic sugar beet [1] (dose 15 g A.S./ha), in the data set on transgenic sugar beet [1] (dose 30 g A.S./ha) and in the data set with transgenic sugar beet [1] (dose 60 g A.S./ha) was 0 each time.
On to `CP(=O)(O)CCC(N)C(=O)O` (centres unmarked) [(A1.2), glufosinate monoammonium salt], for which the “Damage to transgenic sugar beet” value in the data set on transgenic sugar beet [2] (dose 37.5 g A.S./ha), with transgenic sugar beet [2] (dose 75 g A.S./ha), with transgenic sugar beet [2] (dose 150 g A.S./ha), in the data set with transgenic sugar beet [2] (dose 300 g A.S./ha), with transgenic sugar beet [4] (dose 125 g A.S./ha) and in the data set with transgenic sugar beet [4] (dose 250 g A.S./ha) was 0 each time. Besides, the “Damage to transgenic sugar beet” value with transgenic sugar beet [4] (dose 500 g A.S./ha), in the data set on transgenic sugar beet [5] (dose 0 g A.S./ha), with transgenic sugar beet [5] (dose 10 g A.S./ha), with transgenic sugar beet [5] (dose 65 g A.S./ha), in the data set on transgenic sugar beet [1] (dose 150 g A.S./ha) and with transgenic sugar beet [1] (dose 300 g A.S./ha) was 0 throughout. For the same molecule, the “Damage to transgenic sugar beet” value in the data set on transgenic sugar beet [1] (dose 600 g A.S./ha) worked out at 0. For the same molecule, the “Herbicidal action in % against Galium aparine” value is listed as 45% in the data set on Galium aparine [3] (dose 125 g A.S./ha); 60% in the data set with Galium aparine [3] (dose 250 g A.S./ha); 85% with Galium aparine [3] (dose 500 g A.S./ha); 20% in the data set on Galium aparine [6] (dose 250 g A.S./ha); 40% in the data set with Galium aparine [6] (dose 300 g A.S./ha); 85% with Galium aparine [6] (dose 600 g A.S./ha). The “Herbicidal action in % against Amaranthus retroflexus” value with Amaranthus retroflexus was 55%. Also, in the data set with Setaria viridis, the “Herbicidal action in % against Setaria viridis” value is 60%.
As for `CC(C)N.O=C(O)CNCP(=O)(O)O` [(A2.2), monoisopropylammonium salt of glyphosate], the “Herbicidal action in % against Galium aparine” value with Galium aparine [7] (dose 125 g A.S./ha) came out at 10%; in the data set on Galium aparine [7] (dose 250 g A.S./ha), 40%; with Galium aparine [7] (dose 500 g A.S./ha), 60%; with Galium aparine [7] (dose 1000 g A.S./ha), 85%.
As to `Cc1nnc(-c2ccccc2)c(=O)n1N` [(B1.4), 4-amino-4,5-dihydro-3-methyl-6-phenyl-1,2,4-triazin-5-one], the “Damage to transgenic sugar beet” value in the data set with transgenic sugar beet [4] (dose 750 g A.S./ha), in the data set with transgenic sugar beet [4] (dose 1500 g A.S./ha) and in the data set on transgenic sugar beet [4] (dose 3000 g A.S./ha) was 0 in each case.
`COC(=O)Nc1cccc(NC(=O)Oc2cccc(C)c2)c1` [(B2.2), 3-methylphenyl N-[3-(methoxycarbonylamino)phenyl]carbamate]: the “Herbicidal action in % against Galium aparine” value with Galium aparine [3] (dose 500 g A.S./ha) worked out at 20%; in the data set with Galium aparine [3] (dose 1000 g A.S./ha), 30%; in the data set with Galium aparine [3] (dose 2000 g A.S./ha), 30%; in the data set on Galium aparine [7] (dose 500 g A.S./ha) it was 20%; in the data set on Galium aparine [7] (dose 1000 g A.S./ha) it was 30%; in the data set with Galium aparine [7] (dose 2000 g A.S./ha), 30%. Moreover, the “Damage to transgenic sugar beet” value with transgenic sugar beet [4] (dose 500 g A.S./ha), with transgenic sugar beet [4] (dose 1000 g A.S./ha) and with transgenic sugar beet [4] (dose 2000 g A.S./ha) was 0 throughout.
As to `O=C(O)c1nc(Cl)ccc1Cl` [(B2.4), 3,6-dichloropyridine-2-carboxylic acid], the “Damage to transgenic sugar beet” value with transgenic sugar beet [4] (dose 50 g A.S./ha), with transgenic sugar beet [4] (dose 100 g A.S./ha) and in the data set on transgenic sugar beet [4] (dose 200 g A.S./ha) was 0 throughout.
Take `COC(=O)[C@@H](C)Oc1ccc(Oc2ncc(C(F)(F)F)cc2Cl)cc1` [(B3.4), haloxyfop-P-methyl]: the “Herbicidal action in % against Avena fatua” value is 20% in the data set on Avena fatua (dose 15 g A.S./ha) and 63% with Avena fatua (dose 30 g A.S./ha). The “Damage to transgenic sugar beet” value in the data set on transgenic sugar beet [1] (dose 15 g A.S./ha) and in the data set with transgenic sugar beet [1] (dose 30 g A.S./ha) was 0 each time.
On to `CCC/C(=N\OCC)C1=C(O)CC(CC(C)SCC)CC1=O` (centres unmarked) [(B4.1), (E,Z)-2-(1-ethoxyiminobutyl)-5-[2-(ethylthio)propyl]-3-hydroxycyclohex-2-enone], for which the “Damage to transgenic sugar beet” value in the data set on transgenic sugar beet [5] (dose 105 g A.S./ha), with transgenic sugar beet [5] (dose 210 g A.S./ha) and with transgenic sugar beet [5] (dose 315 g A.S./ha) was 0 in each case.
For the molecule `CCCC(=NOCC)C1=C(O)CC(C2CCCSC2)CC1=O` (centres unmarked) [(B4.2), 2-(1-ethoxyiminobuytl)-3-hydroxy-5-thian-3-ylcyclohex-2-enone], the “Damage to transgenic sugar beet” value in the data set with transgenic sugar beet [5] (dose 62.5 g A.S./ha), in the data set on transgenic sugar beet [5] (dose 125 g A.S./ha) and in the data set on transgenic sugar beet [5] (dose 250 g A.S./ha) was 0 throughout.
